Laboratory results reported in patent US9050341B2, “Methods of treating drug resistant and other tumors by administering 6,7-dialkoxy quinazoline derivatives” (NATCO PHARMA LIMITED, priority 2009, dated 2015).

Assays:
[1] = Acute oral toxicity (MTD) in Wistar rats; format: in vivo
[2] = 30 day repeated dose toxicity in beagle dogs; format: in vivo
Description: The methods followed were as per CPMP/SWP/1042/99 (July 2000) and ICH S3A (March (1995)) guidelines. Prior to the 30 day repeated dose study, a dose range finding study was conducted, which included single dose MTD study followed by a 10 day repeated dose study. […]. The route of dosing was oral, by gelatin capsule. Based on the results of the dose range finding study, doses for the 30 days study were selected.
The 30 day repeated dose study employed 12 male and 12 female dogs (Marshall's Farm, China). The dogs were acclimatized for a minimum period of 2 weeks and randomly divided into four main groups (G1-G4), each group comprising of 3 dogs per sex. The animals were dosed orally with capsules of NRC-2694A for a period of 30 consecutive days at dose levels of 10 mg/kg b.wt/day (G2-low dose), 20 mg/kg b.wt/day (G3-mid dose) and 40 mg/kg b.wt/day (G4-high dose). […]. The control group (G1-0 mg/kg b. wt/day) animals were dosed by oral capsule with placebo.
The study also tracked body weight (weekly), food consumption (daily), opthalmological status (start and end), hematological and biochemical analyses (start and end), toxicokinetics analysis of plasma (start and end). […]

[3] = tested on: Salmonella typhimurium (TA 98, TA 100, TA 102, TA 1535 and TA 1537); assay: Ames bacterial reverse mutation assay; settings: five tester strains, with or without S9
Description: The present study was conducted by the direct plate incorporation method with five tester strains of Salmonella typhimurium (TA 98, TA 100, TA 102, TA 1535 and TA 1537). […] Simultaneously, negative control cultures received DMSO and the respective positive controls received the mutagens 2-Amino anthracene, 2-Nitrofluorene, Sodium azide, 9-Aminoacridine and Mitomycin C (Sigma, St. Louis). In order to study the role of metabolic activation, cultures were incubated both with and without S9 mixture. The induction of Histidine positive colonies was computed and results were statistically treated for comparison.

[4] = Functional observational battery (FOB); format: in vivo, Wistar rats
Description: The study was conducted in accordance with “S7A Safety Pharmacology Studies for Human Pharmaceuticals, ICH” July 2001, and as per this study protocol. […] Rats that had been fasted for 16 to 18 hours (access to water was not interrupted) were dosed with the compound or water. The rats were administered the compound in an aqueous formulation at three levels, 75, 125 and 250 mg/kg b.wt, as a single oral dose by gavage. The control group received water. The rats were subjected to the FOB 60-120 min. after drug administration.
Animals were subjected to the FOB one at a time except for the multiple activity cage where four animals were placed in four different cages simultaneously. Once complete, the animals were returned to their home cage and the cage placed back on the stand.
The FOB can be employed to assess multiple neurobiological domains including neuromuscular (weakness, in coordination, gait and tremor), sensory (audition, vision and somatosensory), and autonomic (pupil response and salivation) functions. The measures of a neuro behavioral screening battery have been divided into specific functional domains. For example, Lacrimation, salivation, pupil response, palpebral closure, defecation and urination are measures of some aspects of the autonomic system. Similarly the neuro muscular domain can be assessed based on the gait/mobility score, landing foot splay, grip strength and righting reflex; sensorimotor domain based on response to tail pinch and click/touch/approach response; CNS excitability domain based on ease of removal and handling of the animal, clonic/tonic movements, arousal and vocalization; CNS activity domain based on home cage posture, palpebral closure, rearing and motor activity and finally the physiological domain is assessed based on the body weight, body temperature and piloerection.

[5] = Respiratory function, whole body plethysmograph; format: in vivo; settings: conscious male Wistar rats, 75, 125 and 250 mg/kg oral, 3 hours
Description: This study evaluated the effect of NRC-2694A monohydrochloride on respiratory function in conscious Wistar rats following administration of a single dose using a whole body plethysmograph. The study was conducted in accordance with “S7A Safety Pharmacology Studies for Human Pharmaceuticals, ICH” issued July 2001. The study used a parallel design with one vehicle and three test item treated groups. […] Male Wistar rats were placed in plethysmography chambers and baseline respiratory parameters were recorded for 30 minutes. Following drug administration respiratory parameters were recorded continuously for 3 hours.

[6] = Cardiovascular parameters in telemetered dogs; format: in vivo, Beagle dogs; settings: for cardiovascular parameters (blood pressure, pulse pressure, heart rate, QT and QTcf intervals): telemetered male Beagle dogs, 15, 30 and 60 mg/kg b.wt. oral
Description: The study was conducted in accordance with ICH “S7A Safety Pharmacology Studies for Human Pharmaceuticals, Note for Guidance on Safety Pharmacology Studies for Human Pharmaceuticals, July 2001”. The doses tested were 0, 15, 30 and 60 mg/kg b.wt. given orally by gelatin capsule. Four male Beagle dogs, each implanted with a TL1IM2-D70-PCT transmitter (Data Sciences International, USA), were used for the study. During the study, the dogs were administered 4 oral treatments representing placebo and all test substance treatment groups with a three day (˜72 hour) wash-out period between each administration, using a Latin square cross-over design.
On dosing days, the telemetered dogs were observed once before commencement of data collection, continuously through 2 hours post-dose remotely and ˜8 hours post-dose for changes in behaviour. Cardiovascular parameters (systolic, diastolic and mean blood pressure, pulse pressure and heart rate) were recorded continuously for ˜60 minutes before dosing and up to 24 hours after dosing. Systolic, diastolic and mean blood pressures, pulse pressure and heart rate were obtained from the femoral artery waveform. Electrocardiograms were recorded continuously for ˜60 minutes before dosing and up to 24 hours after dosing. Electrocardiograms were obtained from subcutaneously placed bio-potential leads in a Lead II configuration. Heart rate and QT intervals were determined from the ECG's.

ABL1 (T315I) = target: T1, ABL1 (T315I) (Homo sapiens, UniProt P00519, T315I); assay: KinomeScan kinase profiling; format: binding
T1 construct: host or cells: E. coli host derived from BL21 (T7 phage lysate)

AKT2 = target: T2, AKT2 (Homo sapiens, UniProt P31751); assay: KinomeScan kinase profiling; format: binding
T2 construct: host or cells: E. coli host derived from BL21 (T7 phage lysate)
T2 sequence (P31751 whole entry): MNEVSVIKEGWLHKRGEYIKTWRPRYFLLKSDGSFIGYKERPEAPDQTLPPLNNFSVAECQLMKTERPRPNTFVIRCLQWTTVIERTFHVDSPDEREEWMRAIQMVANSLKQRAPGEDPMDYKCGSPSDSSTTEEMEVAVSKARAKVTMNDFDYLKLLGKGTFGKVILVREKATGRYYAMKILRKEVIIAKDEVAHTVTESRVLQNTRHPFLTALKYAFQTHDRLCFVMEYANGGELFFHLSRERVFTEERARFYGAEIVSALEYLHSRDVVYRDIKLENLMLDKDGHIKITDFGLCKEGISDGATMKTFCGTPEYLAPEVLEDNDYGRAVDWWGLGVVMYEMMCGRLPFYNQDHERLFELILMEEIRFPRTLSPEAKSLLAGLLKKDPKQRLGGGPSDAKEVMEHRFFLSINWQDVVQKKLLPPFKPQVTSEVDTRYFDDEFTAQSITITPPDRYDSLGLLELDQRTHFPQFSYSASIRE

CAMK2B = target: T3, CAMK2B (Homo sapiens, UniProt Q13554); assay: KinomeScan kinase profiling; format: binding
T3 construct: purchased Ambit Biosciences Corp (KinomeScan); host or cells: E. coli host derived from the BL21 strain, T7 phage
T3 sequence (Q13554 whole entry): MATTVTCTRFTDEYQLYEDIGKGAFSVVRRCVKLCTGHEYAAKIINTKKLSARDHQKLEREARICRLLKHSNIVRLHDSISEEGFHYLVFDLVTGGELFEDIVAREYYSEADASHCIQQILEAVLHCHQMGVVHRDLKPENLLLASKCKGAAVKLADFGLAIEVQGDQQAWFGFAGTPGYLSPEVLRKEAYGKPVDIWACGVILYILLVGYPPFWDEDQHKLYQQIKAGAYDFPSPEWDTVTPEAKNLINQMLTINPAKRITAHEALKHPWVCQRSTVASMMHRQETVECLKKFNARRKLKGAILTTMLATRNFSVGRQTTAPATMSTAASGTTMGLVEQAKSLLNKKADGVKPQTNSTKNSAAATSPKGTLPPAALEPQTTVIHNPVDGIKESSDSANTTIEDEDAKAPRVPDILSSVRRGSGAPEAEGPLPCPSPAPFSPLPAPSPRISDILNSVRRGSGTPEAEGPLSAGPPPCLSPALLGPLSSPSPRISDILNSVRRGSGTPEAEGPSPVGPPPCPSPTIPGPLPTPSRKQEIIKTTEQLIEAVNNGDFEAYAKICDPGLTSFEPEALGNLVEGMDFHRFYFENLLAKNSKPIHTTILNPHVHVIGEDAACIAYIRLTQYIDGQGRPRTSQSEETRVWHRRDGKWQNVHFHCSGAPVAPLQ

DYRK1B = target: T4, DYRK1B (Homo sapiens, UniProt Q9Y463); assay: KinomeScan kinase profiling; format: binding
T4 construct: purchased Ambit Biosciences Corp (KinomeScan); host or cells: T7 phage in E. coli host derived from BL21
T4 sequence (Q9Y463 whole entry): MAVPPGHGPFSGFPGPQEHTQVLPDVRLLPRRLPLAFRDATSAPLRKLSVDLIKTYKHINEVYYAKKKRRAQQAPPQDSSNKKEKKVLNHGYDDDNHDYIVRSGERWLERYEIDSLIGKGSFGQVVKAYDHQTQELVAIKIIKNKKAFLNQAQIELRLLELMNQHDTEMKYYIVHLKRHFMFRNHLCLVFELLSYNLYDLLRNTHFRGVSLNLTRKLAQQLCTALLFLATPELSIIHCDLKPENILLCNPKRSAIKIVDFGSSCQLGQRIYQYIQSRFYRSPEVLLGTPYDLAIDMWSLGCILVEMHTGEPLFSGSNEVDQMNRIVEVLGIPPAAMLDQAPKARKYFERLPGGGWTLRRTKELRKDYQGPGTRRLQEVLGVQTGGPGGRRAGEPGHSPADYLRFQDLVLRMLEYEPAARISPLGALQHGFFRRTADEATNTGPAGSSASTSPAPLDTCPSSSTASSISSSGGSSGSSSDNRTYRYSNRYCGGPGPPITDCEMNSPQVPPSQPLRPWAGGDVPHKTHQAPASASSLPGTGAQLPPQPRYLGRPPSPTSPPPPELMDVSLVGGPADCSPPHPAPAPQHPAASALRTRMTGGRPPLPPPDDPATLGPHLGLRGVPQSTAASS

hERG channel = hERG channel (Homo sapiens, UniProt Q12809); assay: hERG whole cell patch-clamp in CHO cells; settings: 10 μM
Chain of hERG channel (Q12809 whole entry): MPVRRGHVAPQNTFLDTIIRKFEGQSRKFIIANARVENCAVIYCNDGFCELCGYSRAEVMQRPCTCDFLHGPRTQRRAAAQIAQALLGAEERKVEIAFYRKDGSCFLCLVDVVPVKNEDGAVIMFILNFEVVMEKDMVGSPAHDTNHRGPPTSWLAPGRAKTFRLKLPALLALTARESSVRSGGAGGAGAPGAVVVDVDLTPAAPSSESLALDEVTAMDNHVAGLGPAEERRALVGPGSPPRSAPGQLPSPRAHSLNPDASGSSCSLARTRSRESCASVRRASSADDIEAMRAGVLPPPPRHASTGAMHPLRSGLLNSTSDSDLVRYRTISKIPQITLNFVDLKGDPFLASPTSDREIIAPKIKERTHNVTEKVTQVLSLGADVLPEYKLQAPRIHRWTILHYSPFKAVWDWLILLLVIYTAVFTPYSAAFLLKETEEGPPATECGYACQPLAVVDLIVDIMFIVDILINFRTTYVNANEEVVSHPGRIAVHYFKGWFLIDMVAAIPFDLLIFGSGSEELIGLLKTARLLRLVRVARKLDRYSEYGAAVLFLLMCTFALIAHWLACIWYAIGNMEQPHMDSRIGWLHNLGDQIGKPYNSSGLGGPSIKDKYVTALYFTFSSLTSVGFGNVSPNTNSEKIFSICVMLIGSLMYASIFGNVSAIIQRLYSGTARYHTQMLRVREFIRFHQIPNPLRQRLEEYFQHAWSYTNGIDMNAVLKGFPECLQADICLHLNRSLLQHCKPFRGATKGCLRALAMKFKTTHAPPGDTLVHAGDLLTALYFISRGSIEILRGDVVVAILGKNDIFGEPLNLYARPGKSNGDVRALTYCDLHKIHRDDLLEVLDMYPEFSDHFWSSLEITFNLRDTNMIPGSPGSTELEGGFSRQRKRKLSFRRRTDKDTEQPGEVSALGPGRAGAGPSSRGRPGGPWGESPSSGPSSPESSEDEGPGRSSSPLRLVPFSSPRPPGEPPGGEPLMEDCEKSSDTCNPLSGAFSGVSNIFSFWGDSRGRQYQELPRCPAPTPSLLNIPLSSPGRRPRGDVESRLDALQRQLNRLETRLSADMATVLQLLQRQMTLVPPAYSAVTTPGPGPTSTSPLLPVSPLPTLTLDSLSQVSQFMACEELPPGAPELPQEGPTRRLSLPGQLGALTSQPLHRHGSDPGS
Description: The test compound was evaluated at 10 μM in 0.1% DMSO (v/v). […] The vehicle control was 0.1% (v/v) DMSO in EC solution.
The selection medium was F-12 (Ham)+GlutaMAX, Ph 7.2, 10% FBS, Penicillin (100 U/mL), Streptomycin (100 μg/mL), Blasticidin S HCL (30 μg/mL) and Hygromycin B (400 μg/mL). The growth medium was F-12 (Ham)+GlutaMAX, 10% FBS, Penicillin (100 U/mL) and Streptomycin (100 μg/mL). The induction medium was F-12 (Ham)+GlutaMAX, 10% FBS, Penicillin (100 U/mL) and Streptomycin (100 μg/mL) and Doxycycline (3 μg/mL). The cell dissociation solution was 0.05% Trypsin-EDTA.

C#Cc1cccc(Nc2ncnc3cc(OC)c(OCCCN4CCOCC4)cc23)c1.Cl [NRC-2694 monohydrochloride, N-(3-ethylnylphenyl)-7-methoxy-6-[3-(4-morpholinyl)propoxy]-4-quinazolinamine mono hydrochloride]
maximum tolerated dose (MTD) ([1]; acute oral gavage, Wistar rats): 1000 mg/kg body weight | gross pathological examination ([1]; rats): did not reveal any lesions of pathological significance, except minimal uterus distension in two female rats | chromodacryoorhea, incidence ([1]; rats, G4 1000 mg/kg body wt.): 10/10 | mild to severe lethargy, incidence ([1]; rats, G4 1000 mg/kg body wt.): 10/10 | piloerection, incidence ([1]; rats, G4 1000 mg/kg body wt.): 10/10 | ptosis, incidence ([1]; rats, G4 1000 mg/kg body wt.): 4/10 | weakness, incidence ([1]; rats, G4 1000 mg/kg body wt.): 1/10 | body weight and percent body weight change ([1]; rats, mid and high dose, days 7 and 14): Statistically significant reduction | toxic signs ([1]; rats, oral gavage, 1000 mg/kg body weight (high dose)): marked toxic signs with reduction in body weight but devoid of any pathological lesions and mortality | major toxic signs or mortality ([1]; rats, oral gavage, 250 (low dose) and 500 mg/kg body weight (mid dose)): did not produce any major toxic signs or mortality | mortality ([1]; rats, oral, 250, 500 and 1000 mg/kg): No mortality | no observed adverse effect level (NOAEL) ([2]; beagle dogs, 30 days, orally by capsule): 10 mg/kg b.wt/day | symptoms of toxicity ([2]; dogs, low dose (G2) 10 mg/kg b.wt/day, 30 days): No symptoms of toxicity | mutagenicity in the Ames test [3]: non-mutagenic | adverse effects in the functional observational battery ([4]; Wistar rats, 75, 125 and 250 mg/kg b.wt single oral dose): did not show any adverse effects | influence on the parameters of the FOB ([4]; Wistar rats, 75, 125 and 250 mg/kg b.wt, 60-120 minutes post treatment): no influence on any of the parameters | respiratory parameters: respiratory rate, tidal volume, minute volume, and Penh [5]: did not influence any of the observed parameters | no observed effect level ([6]; cardiovascular parameters, male Beagle dogs, oral): 60 mg/kg b.wt. | cardiovascular parameters (blood pressure, pulse pressure, heart rate, QT and QTcf intervals) [6]: no significant negative effects

C#Cc1cccc(Nc2ncnc3cc(OC)c(OCCCN4CCOCC4)cc23)c1 [NRC-2694, N-(3-ethylnylphenyl)-7-methoxy-6-[3-(4-morpholinyl)propoxy]-4-quinazolinamine]
% Ctrl @ 10000 nM (ABL1 (T315I)): 35 % Ctrl | % Ctrl @ 10000 nM (AKT2): 100 % Ctrl | % Ctrl @ 10000 nM (CAMK2B): 77 % Ctrl | % Ctrl @ 10000 nM (DYRK1B): 66 % Ctrl | MTD, mice compared with rats ([1]; rat, in vivo): the same in mice and rats | toxicity compared with Erlotinib ([2]; beagle dogs): significantly less toxic than Erlotinib HCl | mutagenicity in the Ames test [3]: not mutagenic | induction of His revertant colonies ([3]; 0.0125-1.2500 mg/plate): lack of statistically significant induction | neurotoxicity toward the central and peripheral nervous system ([4]; Wistar rats, FOB): no evidence of neurotoxicity | respiratory parameters: respiratory rate, tidal volume, minute volume, and Penh [5]: lacks toxicity against respiratory function | cardiovascular parameters (blood pressure, pulse pressure, heart rate, QT and QTcf intervals) [6]: lacks toxicity against cardiovascular function | hERG channel, conclusion (hERG channel): an inhibitor of the hERG channel
